What was measured:
Hela cells = system: Hela cells; design: method as in PMID 17471180; conditions: cited from earlier work
[1] = system: membrane potential of pig heart mitochondria; test: Mitochondrial membrane potential assay (JC-10) in pig heart mitochondria; format: biochemical; conditions: JC-10, 5 min incubation
Text: Next we analyzed the mechanism of action of DS16570511. The previous studies implicated two possible inhibitory mechanisms for the mitochondrial Ca^2+ uptake: (1) direct blockade of the calcium uniporter and (2) disruption of the membrane potential.[20],[21] Mitochondrial Ca^2+ uptake is mediated by electrical potential across the mitochondrial inner membrane, which is generated by the oxidative phosphorylation system. […] To examine effects on the mitochondrial membrane potential, fluorescent indicator JC-10 was used in mitochondria from pig heart.
(a) Effect of FCCP on Ca^2+ uptake of pig heart mitochondria. […] Relative membrane potential 0 or 100% is defined as value of 1 μM FCCP-treated mitochondria or vehicle-treated mitochondria, respectively. Data are mean with S.E.M. from three (a) or four (b) independent samples.
Pig heart mitochondria were prepared as described above and suspended in the swelling buffer containing 1 μM JC-10. The protein concentration of the solution was 5 mg/ml. Five minutes after incubation of the mitochondria with DS16570511 at room temperature, fluorescence intensities were measured by a FlexStation 3 (Molecular Devices, LLC, Sunnyvale, CA, USA) using the green channel (excitation/emission wavelength: 485/538 nm) or the red channel (excitation/emission wavelength: 485/612 nm).

[2] = target: T1, mitochondrial calcium uniporter (Homo sapiens, UniProt Q8NE86); test: Ca2+ uptake of isolated mitochondria from HEK293A cells (aequorin luminescence); format: biochemical; design: isolated mitochondria from HEK293A cells were used; endogenous in cells; host or cells: mitochondria isolated from HEK293A cells stably expressing mitochondria-targeted aequorin
T1 sequence (Q8NE86 51-351): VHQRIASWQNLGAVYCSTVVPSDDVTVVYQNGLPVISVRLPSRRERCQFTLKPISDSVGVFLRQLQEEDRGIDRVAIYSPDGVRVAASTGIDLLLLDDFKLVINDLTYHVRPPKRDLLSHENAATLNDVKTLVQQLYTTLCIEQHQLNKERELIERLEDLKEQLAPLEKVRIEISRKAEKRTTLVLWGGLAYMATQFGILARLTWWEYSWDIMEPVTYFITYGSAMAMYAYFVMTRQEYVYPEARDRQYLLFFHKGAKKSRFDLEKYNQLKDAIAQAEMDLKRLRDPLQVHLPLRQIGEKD
T1 sequence (Q9H4I9 48-107 partner limits assumed): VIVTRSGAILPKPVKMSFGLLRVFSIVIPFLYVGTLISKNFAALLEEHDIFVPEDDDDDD
Experimental: Mitochondrial Ca^2+ uptake activity is regulated by cytosolic protein kinase signaling,[19] raising the possibility that HTS hits contained indirect inhibitors of the uniporter, such as inhibitors of cytosolic signaling. To examine the direct inhibitory effect of the compounds on the mitochondrial Ca^2+ uptake, isolated mitochondria from HEK293A cells were used. Ca^2+ uptake of the isolated mitochondria was observed as a rapid increase in the luminescence level after application of 100 μM Ca^2+ (Figure 2a).
Figure 2 DS16570511 inhibits Ca^2+ uptake in isolated mitochondria from HEK293A cells. (a) Representative raw data of Ca^2+ uptake in isolated mitochondria. (b) Effect of DS16570511 or Ru360 on mitochondrial Ca^2+ uptake. The area under the curve of temporal aequorin activities is used for calculation of inhibitory activities. Inhibition 0 or 100% is defined as a value of […], respectively. Data are mean with S.E.M. from three independent samples.
To monitor Ca^2+ uptake activity of isolated mitochondria, mitochondria were prepared from the cells (1×10^8 cells) stably expressing mitochondria-targeted aequorin by using a mitochondria isolation kit. […] The luminescence levels were detected as described above.

cultured myocytes = system: cultured myocytes; design: method as in PMID 22425903; conditions: cited from earlier work
[3] = system: Ca2+ uptake of pig heart mitochondria; test: Ca2+ uptake assay using isolated pig heart mitochondria (atomic absorbance spectrometer); format: biochemical; conditions: 100 μM CaCl2
Experimental: (§1) We then asked whether DS16570511 inhibits Ca^2+ uptake in isolated mitochondria from animal heart. An atomic absorbance spectrometer-based detection method was employed to analyze intramitochondrial Ca^2+ levels. We prepared freshly isolated mitochondria from pig heart, and the mitochondria were incubated with 100 μM CaCl2.
(§2) (a) Effect of RuR on Ca^2+ uptake of pig heart mitochondria. […] Data are mean with S.E.M. from three independent samples. (b) Inhibition rate of RuR or DS16570511 on Ca^2+ uptake of pig heart mitochondria. Inhibition 0 or 100% is defined as a value of Ca^2+-untreated mitochondria or Ca^2+-treated mitochondria, respectively. Data are mean with S.E.M. from three independent samples. (c) Inhibition rate of RuR or DS16570511 on Ca^2+ uptake of rat heart mitochondria. Data are mean with S.E.M./variation from three or two independent samples for DS16570511 or RuR, respectively.
Mitochondria were isolated by using the mitochondria isolation kit and then dissolved in the swelling buffer. The protein concentration of the mitochondrial solution was 5 mg/ml. Thirty minutes after application of CaCl2 (final concentration of 100 μM) to the solution, the mitochondria were collected by centrifugation (3000 g) at 4 °C. The pellets were resuspended in the swelling buffer containing 1 μM RuR. After collection of the mitochondria by centrifugation (3000 g), the pellets were dried and dissolved by 40 μl of sulfuric acid at 95 °C.

[4] = system: Ca2+ uptake of rat heart mitochondria; test: Ca2+ uptake assay using isolated rat heart mitochondria (atomic absorbance spectrometer); format: biochemical; conditions: 100 μM CaCl2; read-out: IC50, inhibition of Ca2+ uptake of rat heart mitochondria
Experimental: as §1
as §2, with “Figure 3 DS16570511 inhibits Ca^2+ uptake in isolated heart mitochondria. (a)” for “(a)”
Mitochondria were isolated by using the mitochondria isolation kit and then dissolved in the swelling buffer. The protein concentration of the mitochondrial solution was 5 mg/ml. […] The solution was then diluted by water, and Ca^2+ concentration of the solution was measured by atomic absorbance spectrometer (Hitachi High-Technologies Corporation, Z-2710, Tokyo, Japan).

[5] = system: recombinant MCU multimers; design: method as in PMID 26285678; conditions: lipid bilayer; cited from earlier work

N=C(N)SCCc1ccc(OCc2ccc([N+](=O)[O-])cc2)cc1 [KB-R7943]
effect on agonist-induced mitochondrial Ca2+ influx (Hela cells): inhibit

N#CC(C#N)=NNc1ccc(OC(F)(F)F)cc1 [FCCP, carbonyl cyanide-p-trifluoromethoxyphenylhydrazone]
effect on mitochondrial membrane potential [1]: disruption of the potential in a dose-dependent manner

N.N.N.N.N.N.N.N.O=C[O-].O=C[O-].[O-2].[Ru+3].[Ru+4] [Ru360, Ruthenium 360, reference compound]
effect on mitochondrial membrane potential [1]: no effect
IC50 [2]: 20 nM

CS(=O)(=O)O.CS(=O)(=O)O.O=S1(=O)CCN(Cc2cc(NCC3CCOCC3)c3[nH]c(-c4ccccc4)cc3c2)CC1 [NecroX-5]
effect on Ca2+ accumulation (cultured myocytes): attenuate

N.N.N.N.N.N.N.N.N.N.N.N.N.N.[Cl-].[Cl-].[Cl-].[Cl-].[Cl-].[Cl-].[O-2].[O-2].[Ru+3].[Ru+3].[Ru+4] [RuR, Ruthenium Red]
effect on Ca2+ uptake activity of isolated pig heart mitochondria (in words) [3]: fully blocked
IC50 ([3]; read-out: IC50, inhibition of Ca2+ uptake of pig heart mitochondria): 30 nM
IC50 [4]: 100 nM
effect on Ca2+ channel activity mediated by recombinant MCU multimers [5]: inhibited

Source: PMC5511861, “DS16570511 is a small-molecule inhibitor of the mitochondrial calcium uniporter” (Cell Death Discovery, 2017)
